Results: patent US20230287416A1, “COMBINATORY TREATMENT OF SMA WITH SARNA AND MRNA MODULATORS” (RACTIGEN THERAPEUTICS, priority 2020, published 2023)

Assays:
Assay type in all cases: cell-based, human
SMN2 mRNA = experiment: RT-qPCR of SMN2FL and SMN2 Δ7 mRNA in GM03813 cells; conditions: for maximum increase of SMN2FL (ceiling effect): GM03813, 72 h (Example 1)
Source text: “GM03813 cells” refers to fibroblast cells provided by Coriell Institute for Medical Research. This cell line is described as SPINAL MUSCULAR ATROPHY, TYPE II; SMA2 SURVIVAL OF MOTOR NEURON 1, TELOMERIC; SMN1. The relevant gene is SMN1; the chromosomal location is 5q12.2-q13.3, the allelic variant is described as 1 exons 7 and 8 deleted, SPINAL MUSCULAR ATROPHY, TYPE I; and the identified mutation: is EX7-8DEL.
Seventy-two hours later, total cellular RNA was isolated from the treated cells and reverse transcribed into cDNA. SMN2 mRNA expression was assessed with RT-qPCR using primer pairs specific for SMN2FL or SMN2 Δ7. SMN2 mRNA expression was also assessed by semi-quantitative RT-PCR using a primer pair that amplifies both SMN2FL and SMN2 Δ7 followed by DdeI digestion (PCR/digestion). […] After digestion, both bands were reduced by 115 bp, resulting in two products: 392 bp (SMN2FL) and 338 bp (SMN2 Δ7) as shown on the gel of FIG. 3D. FIG. 3A-3D show dose-dependent changes in SMN2FL and SMNΔ7 mRNA as assessed by RT-qPCR and PCR/digestion respectively. FIG. 3E-3G are graphic plots of data from quantitating the intensity of bands in FIG. 3D.
(§1) SMA patient derived fibroblasts were obtained from Coriell Institute (Camden, N.J., USA), including GM00232 (SMA type I with 2 copies of SMN2 gene) and GM03813 (SMA type II with 3 copies of SMN2 gene). These cells were cultured at 5% C02 and 37° C. in modified MEM medium (Gibco, Thermo Fisher Scientific, Carlsbad, Calif.) supplemented with 15% bovine calf serum (Sigma-Aldrich), 1% NEAA (Gibco) and 1% penicillin/streptomycin (Gibco). To transfect oligonucleotides including saRNAs, siRNA and ASO, cells were seeded into 6-well plates at a density of 1×10^5 cells/well and were transfected with oligonucleotides at different concentrations using RNAiMax (Invitrogen, Carlsbad, Calif.) according to the reverse transfection protocol provided by the manufacturer for 72 hours (unless otherwise specified). For Risdiplam treatment of cells, Risdiplam (HY-109101, MedChem Express Company, Monmouth Junction, N.J., USA) dissolved in DMSO was added directly to cells at desired concentration for 72 hours unless specified otherwise.
For RNA isolation from cultured cells, total cellular RNA was isolated from treated cells using an RNeasy Plus Mini kit (Qiagen, Hilden, Germany) according to its manual. To isolated RNA from animal tissues, tissues were harvested and stored at RNA later (AM7021, Thermo Fisher). Total RNA was then isolated using MagPure Total RNA Micro LQ kit (Magen, R6621, China) by auto-pure96 machine (ALLSHENG, China). The resultant RNA (1 μg) was reverse transcribed into cDNA by using a PrimeScript RT kit containing gDNA Eraser (Takara, Shlga, Japan). The resultant cDNA was amplified in an ABI 7500 Fast Real-time PCR System (Applied Biosystems; Foster City, Calif.) using SYBR Premix Ex Taq 11 (Takara, Shlga, Japan) reagents and primers which specifically amplified full-length (SMN2FL) or A7 SMN2 mRNA (SMN2 Δ7) (FIG. 1). The reaction conditions were: 95° C. for 3 seconds (1 cycle) and 60° C. for 30 seconds (40 cycles). Amplification of TBP gene served as an internal control.

SMN protein [1] = experiment: Western blotting of SMN protein in GM00232 cells; conditions: GM00232, 72 h
Procedure: (§2) To further verify the effect of ASO-10-27 and DS06-0004 alone or in combination on SMN2 gene expression, western blotting assays were performed in GM00232 cells transfected individually or in combination with ASO-10-27 and DS06-0004. […] DS06-0004 at 1 nM, 5 nM and 25 nM increased SMN2FL by 1.2, 1.3 and 1.7 fold, respectively (FIGS. 5B and 5C).
as §1
(§3) Proteins were harvested from transfected cells using 1×RIPA Buffer including protease inhibitors and detected the protein concentration by BCA protein assay kits (Beyotime, P0010, China). To isolated proteins from animal tissues, tissues were harvested and lysed using 1×RIPA Buffer. Protein concentrations were measured by using BCA protein assay kits. Protein electrophoresis was performed (10 ug protein/well) with the use of a sodium dodecyl sulfate polyacrylamide gel electrophoresis (PAGE) gel, which was then transferred to a polyvinylidene difluoride (0.45 μm PVDF) membrane. The membranes were blotted with primary anti-SMN (CST, 19276, USA) or anti-α/β-Tubulin (CST, 2148s, USA) antibodies at 4° C. overnight. After three washes with TBST buffer, the membranes were incubated with anti-IgG, horseradish peroxidase-conjugated secondary antibodies (CST, 7074s and 7076s, USA) for 1 h at room temperature (RT). The membranes were then washed with TBST buffer three times for 10 min each and analyzed by Image Lab (BIO-RAD, Chemistry Doctm MP Imaging System). Band densities of SMN protein and α/β-Tubulin were quantified using ImageJ software.

SMN protein [2] = experiment: Western blotting of SMN protein in GM03813 cells; conditions: GM03813, 72 h
Procedure: as §2, with “GM03813” for “GM00232”, “1.5-, 1.5-” for “1.2, 1.3”, “1.6-fold,” for “1.7 fold,”, “7B” for “5B”, “7C).” for “5C).”
as §1, §3

[3] = GM03813, 72 h, 100 nM (Example 1)
[4] = GM03813, 72 h, 1 nM (Example 4, FIG. 6A)
[5] = GM03813, 72 h, 1 nM (Example 8)
[6] = GM03813, 72 h, 1 nM to 50 nM (Example 1, FIG. 3B)
[7] = GM03813, 72 h, 5 nM (Example 4)
[8] = GM03813, 72 h, 5 nM (Example 8)
[9] = GM03813, 72 h, 25 nM (Example 4)
[10] = GM03813, 72 h, 25 nM (Example 8)
[11] = GM03813, 72 h, alone or in combination at 10 nM, RT-qPCR (Example 10, FIG. 12A)

Molecule: Cc1cn2nc(-c3cc(=O)n4cc(N5CCNC6(CC6)C5)ccc4n3)cc(C)c2n1 [Risdiplam]
- maximum increase of SMN2FL (ceiling effect) (SMN2 mRNA): ~2 fold
- SMN2FL mRNA fold change (SMN2 mRNA; GM03813, 72 h, 50 nM (Example 8, FIG. 10A-10C)): 1.0 fold
- SMN2 Δ7 mRNA change (SMN2 mRNA; GM03813, 72 h, 50 nM, 250 nM and 1250 nM (Example 8)): decrease
- decrease of SMN2 Δ7 mRNA (SMN2 mRNA; [3]): 36%
- SMN2FL mRNA fold change (SMN2 mRNA; GM03813, 72 h, 100 nM (Example 1, FIG. 3C)): 1.2 fold
- SMN2FL mRNA fold change (SMN2 mRNA; GM03813, 72 h, 250 nM (Example 8)): 1.4 fold
- decrease of SMN2 Δ7 mRNA (SMN2 mRNA; GM03813, 72 h, 1000 nM (Example 1)): 98%
- SMN2FL mRNA fold change (SMN2 mRNA; GM03813, 72 h, 1000 nM (Example 1, FIG. 3C)): 1.8 fold
- SMN2FL mRNA fold change (SMN2 mRNA; GM03813, 72 h, 1250 nM (Example 8)): 2.1 fold
- SMN protein fold change (SMN protein [1]; 50 nM (Example 7, FIG. 9)): 1.7 fold
- SMN protein fold change (SMN protein [1]; 250 nM (Example 7)): 1.9 fold
- SMN protein fold change (SMN protein [1]; 1250 nM (Example 7)): 2.6 fold
- SMN protein fold change (SMN protein [2]; 50 nM (Example 9, FIG. 11)): 1.1 fold
- SMN protein fold change (SMN protein [2]; 250 nM (Example 9)): 1.7 fold

Molecule: DS06-0004: saRNA targeting SMN2 promoter at -281; SEQ ID NO: 476/477 (Table 8: SEQ ID NO: 131/288) (chain 1 AGACGAGGCCUAAGCAACATT; chain 2 UGUUGCUUAGGCCUCGUCUTT; chemistry not given here)
- SMN2 Δ7 mRNA fold change (SMN2 mRNA; GM03813, 72 h, 1 nM (Example 4)): 2.5 fold
- SMN2FL mRNA fold change (SMN2 mRNA; [4]): 2.1 fold
- SMN2FL mRNA fold change (SMN2 mRNA; [5]): 1.7 fold
- SMN2 Δ7 mRNA fold change (SMN2 mRNA; [5]): 1.8 fold
- highest fold change of SMN2FL mRNA (SMN2 mRNA; [6]): 2.9 fold
- highest fold change of SMN2 Δ7 mRNA (SMN2 mRNA; [6]): 2.7 fold
- SMN2FL mRNA fold change (SMN2 mRNA; [7]): 2.6 fold
- SMN2 Δ7 mRNA fold change (SMN2 mRNA; [7]): 2.5 fold
- SMN2FL mRNA fold change (SMN2 mRNA; [8]): 2.2 fold
- SMN2 Δ7 mRNA fold change (SMN2 mRNA; [8]): 2.3 fold
- SMN2FL mRNA fold change (SMN2 mRNA; [9]): 2.2 fold
- SMN2 Δ7 mRNA fold change (SMN2 mRNA; [9]): 2.1 fold
- SMN2FL mRNA fold change (SMN2 mRNA; [10]): 2.3 fold
- SMN2 Δ7 mRNA fold change (SMN2 mRNA; [10]): 2.3 fold
- SMN2 mRNA expression (SMN2 mRNA; [3]): did not further increase
- SMN protein fold change (SMN protein [1]; 1 nM (Example 3, FIG. 5)): 1.2 fold
- SMN protein fold change (SMN protein [1]; 5 nM (Example 3)): 1.3 fold
- SMN protein fold change (SMN protein [1]; 25 nM (Example 3)): 1.7 fold
- SMN protein fold change (SMN protein [2]; 1 nM (Example 5, FIG. 7)): 1.5 fold
- SMN protein fold change (SMN protein [2]; 5 nM (Example 5)): 1.5 fold
- SMN protein fold change (SMN protein [2]; 25 nM (Example 5)): 1.6 fold

Molecule: Nusinersen [ASO-10-27]
- maximum increase of SMN2FL (ceiling effect) (SMN2 mRNA): ~2 fold
- SMN2FL mRNA fold change (SMN2 mRNA; GM03813, 72 h, 1 nM (Example 1, FIG. 3A)): 1.5 fold
- SMN2FL mRNA fold change (SMN2 mRNA; [4]): 1.2 fold
- SMN2 Δ7 mRNA change (SMN2 mRNA; GM03813, 72 h, 1 nM, 5 nM and 25 nM (Example 4)): decrease
- SMN2 Δ7 mRNA change (SMN2 mRNA; GM03813, 72 h, 5 nM (Example 1)): decrease
- SMN2FL mRNA fold change (SMN2 mRNA; [7]): 2.1 fold
- SMN2FL mRNA fold change (SMN2 mRNA; GM03813, 72 h, 5 nM, peak increase (Example 1, FIG. 3A)): 2.0 fold
- SMN2FL mRNA fold change (SMN2 mRNA; [9]): 2.1 fold
- SMN2FL mRNA fold change (SMN2 mRNA; [11]): 1.4 fold
- SMN2 Δ7 mRNA fold change (SMN2 mRNA; [11]): 0.3 fold
- SMN protein fold change (SMN protein [1]; 1 nM (Example 3, FIG. 5)): 1.4 fold
- SMN protein fold change (SMN protein [1]; 5 nM (Example 3)): 2.3 fold
- SMN protein fold change (SMN protein [1]; 25 nM (Example 3)): 2.9 fold
- SMN protein fold change (SMN protein [2]; 1 nM (Example 5, FIG. 7)): 1.2 fold
- SMN protein fold change (SMN protein [2]; 5 nM (Example 5)): 1.5 fold
- SMN protein fold change (SMN protein [2]; 25 nM (Example 5)): 1.9 fold
- SMN protein fold change (SMN protein [2]; alone or in combination at 10 nM (Example 10, FIG. 12D-12E)): 2.3 fold
